Patent US9062124B2, “GIP-based mixed agonists for treatment of metabolic disorders and obesity” (priority 2008, dated 2015)
Where a SMILES comes first, the peptide text is derived from it. Where no end group is shown, it is not given here. [ ]: non-standard residue; d: D form. The star is where a group is joined. PEG 40 kDa = PEG (40 kDa) covalently attached to Cys; C14 acyl = 14 carbon fatty acyl group; Stearoyl = CCCCCCCCCCCCCCCCCC(=O)*; Aib = CC(C)(N)C(=O)O

Key:
[1] = Blood glucose levels of mice after peptide injection
[2] = Food intake of mice after peptide injection; type: in vivo; conditions: for total food intake: versus vehicle control
[3] = Body weight of mice after peptide injection; conditions: DIO mice
[4] = tested on: glucagon receptor, GLP-1 receptor or GIP receptor; experiment: Agonist profile across receptors assigned from the cAMP reporter assay data; type: cell-based; conditions: assigned from the in vitro EC50 data of Tables 1-4
[5] = biological target: T1, glucagon receptor (Homo sapiens, UniProt P47871); experiment: cAMP synthesis functional assay (firefly luciferase reporter in HEK293 cells), glucagon receptor; type: cell-based; conditions: for Glucagon Receptor relative activity: relative to the standard (Std.) EC50 of the same run
T1 construct: expressed in transfected cells; host or cells: HEK293
T1 sequence (P47871 26-477): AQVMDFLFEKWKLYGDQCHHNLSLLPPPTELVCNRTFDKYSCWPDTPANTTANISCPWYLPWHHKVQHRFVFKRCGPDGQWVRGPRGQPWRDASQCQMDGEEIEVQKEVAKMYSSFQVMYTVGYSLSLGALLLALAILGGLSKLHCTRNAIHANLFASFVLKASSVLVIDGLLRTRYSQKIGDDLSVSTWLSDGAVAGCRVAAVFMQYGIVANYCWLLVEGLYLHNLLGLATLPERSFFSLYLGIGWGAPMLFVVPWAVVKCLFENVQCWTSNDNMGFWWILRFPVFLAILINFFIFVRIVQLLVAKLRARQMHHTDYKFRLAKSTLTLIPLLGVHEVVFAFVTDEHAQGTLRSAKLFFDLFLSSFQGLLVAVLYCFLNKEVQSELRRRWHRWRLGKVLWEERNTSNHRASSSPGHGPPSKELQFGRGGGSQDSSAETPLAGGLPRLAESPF

[6] = biological target: T2, GIP receptor (Homo sapiens, UniProt P48546); experiment: cAMP synthesis functional assay (firefly luciferase reporter in HEK293 cells), GIP receptor; type: cell-based; conditions: for EC50: GIP Receptor EC50, cAMP luciferase reporter assay as in Example 16; for GIP Receptor relative activity: relative to the standard (Std.) EC50 of the same run
T2 construct: expressed in transfected cells; host or cells: HEK293
T2 sequence (P48546 22-466): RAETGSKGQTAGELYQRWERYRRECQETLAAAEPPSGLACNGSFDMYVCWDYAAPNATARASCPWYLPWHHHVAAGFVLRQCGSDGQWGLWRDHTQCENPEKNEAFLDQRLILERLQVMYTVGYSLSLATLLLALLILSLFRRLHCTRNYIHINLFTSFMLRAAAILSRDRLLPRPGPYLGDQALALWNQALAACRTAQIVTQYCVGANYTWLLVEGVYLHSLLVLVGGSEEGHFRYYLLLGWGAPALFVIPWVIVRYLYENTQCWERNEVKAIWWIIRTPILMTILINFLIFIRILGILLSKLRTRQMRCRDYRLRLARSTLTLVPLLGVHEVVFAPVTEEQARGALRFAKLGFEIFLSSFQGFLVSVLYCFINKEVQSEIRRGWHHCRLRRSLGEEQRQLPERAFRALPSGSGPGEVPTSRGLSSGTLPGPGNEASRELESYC

[7] = biological target: T3, GLP-1 receptor (Homo sapiens, UniProt P43220); experiment: cAMP synthesis functional assay (firefly luciferase reporter in HEK293 cells), GLP-1 receptor; type: cell-based; conditions: for GLP-1 Receptor relative activity: relative to the standard (Std.) EC50 of the same run
T3 construct: expressed in transfected cells; host or cells: HEK293
T3 sequence (P43220 24-463, species assumed): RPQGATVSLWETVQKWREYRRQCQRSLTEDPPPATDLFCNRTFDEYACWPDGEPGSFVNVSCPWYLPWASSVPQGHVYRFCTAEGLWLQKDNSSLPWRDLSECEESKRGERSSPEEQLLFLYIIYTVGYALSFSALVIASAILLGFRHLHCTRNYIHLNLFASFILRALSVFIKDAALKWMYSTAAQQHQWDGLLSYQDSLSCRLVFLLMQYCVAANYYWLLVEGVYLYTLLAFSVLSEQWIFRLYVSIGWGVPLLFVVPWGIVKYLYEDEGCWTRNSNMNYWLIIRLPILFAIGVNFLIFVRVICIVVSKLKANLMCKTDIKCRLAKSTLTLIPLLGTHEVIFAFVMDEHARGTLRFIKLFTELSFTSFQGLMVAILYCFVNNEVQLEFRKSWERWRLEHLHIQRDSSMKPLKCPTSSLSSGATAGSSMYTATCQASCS

[8] = Example 20, DIO mice, subcutaneous QW, 70 or 210 nmol/kg/week
[9] = Table 5, relative to the native hormone
[10] = Example 34, DIO mice, higher dose (35 nmol/kg), Day 0 versus Day 7
[11] = Example 34, DIO mice, 10 or 35 nmol/kg
[12] = Example 29, mice, QD for 7 days, 25 nmol/kg

mt-353: same sequence as mt-331 with a C14 fatty acyl group on the Lys at position 40 (Y[Aib]EGTFTSDYSIYLDKQAA[Aib]EFVC(PEG 40 kDa)WLLAGGPSSGAPPPSK(C14 acyl)-NH2)
blood glucose levels ([1]; Example 35, C57Bl/6 mice on diabetogenic diet): additionally caused blood glucose levels to decrease
total food intake ([2]; Example 35, 3 or 10 nmol/kg): decreased in comparison to mice administered the vehicle control

Pro3 C24 GIP NH2 (1-42) 40K PEG: amino acids 1-42 of GIP with Pro at position 3, Cys at position 24 attached to 40K PEG, C-terminal amide (YAPGTFISDYSIAMDKIHQQDFVC(PEG 40 kDa)WLLAQKGKKNDWKHNITQ-NH2) [reference compound]
reduction of body weight ([3]; Example 20, subcutaneous QW, 70 or 210 nmol/kg/week, compared with pegylated glucagon/GLP-1 co-agonist): neither the GIP antagonist nor the GIP agonist peptide were effective
reduction of blood glucose levels [1, 8]: neither the GIP antagonist nor the GIP agonist peptide were effective
reduction of cumulative food intake [2, 8]: neither the GIP antagonist nor the GIP agonist peptide were effective

CCCCCCCCCCCCCCCCCC(=O)NCCCC[C@H](NC(=O)[C@H](CO)NC(=O)[C@@H]1CCCN1C(=O)[C@@H]1CCCN1C(=O)[C@@H]1CCCN1C(=O)[C@H](C)NC(=O)CNC(=O)[C@H](CO)NC(=O)[C@H](CO)NC(=O)[C@@H]1CCCN1C(=O)CNC(=O)CNC(=O)[C@H](C)NC(=O)[C@H](CC(C)C)NC(=O)[C@H](CC(C)C)NC(=O)[C@H](Cc1c[nH]c2ccccc12)NC(=O)[C@H](CC(N)=O)NC(=O)[C@@H](NC(=O)[C@H](Cc1ccccc1)NC(=O)[C@H](CCC(=O)O)NC(=O)C(C)(C)NC(=O)[C@H](C)NC(=O)[C@H](C)NC(=O)[C@H](CCC(N)=O)NC(=O)[C@H](CCCCN)NC(=O)[C@H](CC(=O)O)NC(=O)[C@H](CC(C)C)NC(=O)[C@H](Cc1ccc(O)cc1)NC(=O)[C@@H](NC(=O)[C@H](CO)NC(=O)[C@H](Cc1ccc(O)cc1)NC(=O)[C@H](CC(=O)O)NC(=O)[C@H](CO)NC(=O)[C@@H](NC(=O)[C@H](Cc1ccccc1)NC(=O)[C@@H](NC(=O)CNC(=O)[C@H](CCC(N)=O)NC(=O)C(C)(C)NC(=O)[C@@H](N)Cc1ccc(O)cc1)[C@@H](C)O)[C@@H](C)O)[C@@H](C)CC)C(C)C)C(N)=O [mt-279] (H-Y[Aib]QGTFTSDYSIYLDKQAA[Aib]EFVNWLLAGGPSSGAPPPSK(Stearoyl)-NH2; N-terminus assumed)
receptor activity profile (glucagon / GLP-1 / GIP agonism) [4]: exhibited activity at the GIP, GLP-1, and glucagon receptors
body weight ([3]; Example 31, subcutaneous daily for 1 week, 10 nmol/kg): caused significant weight loss in the mice
EC50 ([5]; Glucagon Receptor EC50, cAMP luciferase reporter assay as in Example 16): 6.9 pM
% activity at the glucagon receptor [5, 9]: 733%
Glucagon Receptor relative activity [5]: 733.33%
EC50 [6]: 4.5 pM
% activity at the GIP receptor [6, 9]: 527%
GIP Receptor relative activity [6]: 526.67%
% activity at the GLP-1 receptor [7, 9]: 420%
GLP-1 Receptor relative activity [7]: 419.57%

mt-309: acylated version of mt-274: C-terminal Lys with C14 fatty acyl group, 40 kDa PEG on Cys at position 24 (Y[Aib]EGTFTSDYSIYLDKQAA[Aib]EFVC(PEG 40 kDa)WLLAGGPSSGAPPPSK(C14 acyl)-NH2)
total change in body weight (%), effect of dosing frequency ([3]; Example 37, subcutaneous QD 5 nmol/kg, every 2nd day 10 nmol/kg or QW 30 nmol/kg, Day 6): approximately the same as the total change in body weight for mice injected QD
decrease in blood glucose levels, effect of dosing frequency ([1]; Example 37, DIO mice, QD 5, every 2nd day 10 or QW 30 nmol/kg, Day 6): a QW injection of mt-309 achieved the same decrease in blood glucose levels as a QD injection

mt-311: non-acylated version of mt-298; PEG on Cys at position 24, C-terminal Lys (Y[Aib]EGTFTSDYSIYLDKQAA[Aib]EFVC(PEG 40 kDa)WLLAGGPSSGAPPPSK-NH2)
blood glucose levels ([1]; Example 28, DIO mice, subcutaneous, 10 nmol/kg, Day 0 versus Day 7): decreased
blood glucose levels [1, 10]: decreased upon administration of the higher dose
total food intake [2, 11]: decreased, as compared to the mice injected with a vehicle control

mt-331: same amino acid sequence as mt-311, differing in the pegylation linker; no acyl group on Lys at position 40 (Y[Aib]EGTFTSDYSIYLDKQAA[Aib]EFVC(PEG 40 kDa)WLLAGGPSSGAPPPSK-NH2; also: PEG linker structure not shown)
blood glucose levels [1, 10]: decreased upon administration of the higher dose
total food intake [2, 11]: decreased, as compared to the mice injected with a vehicle control
total food intake ([2]; Example 35, 3 or 10 nmol/kg): decreased in comparison to mice administered the vehicle control

CCCCCCCCCCCCCCCCCC(=O)NCCCC[C@H](NC(=O)[C@H](CO)NC(=O)[C@@H]1CCCN1C(=O)[C@@H]1CCCN1C(=O)[C@@H]1CCCN1C(=O)[C@H](C)NC(=O)CNC(=O)[C@H](CO)NC(=O)[C@H](CO)NC(=O)[C@@H]1CCCN1C(=O)CNC(=O)CNC(=O)[C@H](C)NC(=O)[C@H](CC(C)C)NC(=O)[C@H](CC(C)C)NC(=O)[C@H](Cc1c[nH]c2ccccc12)NC(=O)[C@H](CC(N)=O)NC(=O)[C@@H](NC(=O)[C@H](Cc1ccccc1)NC(=O)[C@H](CCC(=O)O)NC(=O)C(C)(C)NC(=O)[C@H](C)NC(=O)[C@H](C)NC(=O)[C@H](CCC(N)=O)NC(=O)[C@H](CCCCN)NC(=O)[C@H](CC(=O)O)NC(=O)[C@H](CC(C)C)NC(=O)[C@H](Cc1ccc(O)cc1)NC(=O)[C@@H](NC(=O)[C@H](CO)NC(=O)[C@H](Cc1ccc(O)cc1)NC(=O)[C@H](CC(=O)O)NC(=O)[C@H](CO)NC(=O)[C@@H](NC(=O)[C@H](Cc1ccccc1)NC(=O)[C@@H](NC(=O)CNC(=O)[C@H](CCC(=O)O)NC(=O)C(C)(C)NC(=O)[C@@H](N)Cc1ccc(O)cc1)[C@@H](C)O)[C@@H](C)O)[C@@H](C)CC)C(C)C)C(N)=O [mt-262]
receptor activity profile (glucagon / GLP-1 / GIP agonism) [4]: exhibited activity at the GIP, GLP-1, and glucagon receptors
decrease in blood glucose levels [1, 12]: ~50%

CC[C@H](C)[C@H](NC(=O)[C@H](CO)NC(=O)[C@H](Cc1ccc(O)cc1)NC(=O)[C@H](CC(=O)O)NC(=O)[C@H](CO)NC(=O)[C@@H](NC(=O)[C@H](Cc1ccccc1)NC(=O)[C@@H](NC(=O)CNC(=O)[C@H](CCC(=O)O)NC(=O)C(C)(C)NC(=O)[C@@H](N)Cc1ccc(O)cc1)[C@@H](C)O)[C@@H](C)O)C(=O)N[C@@H](Cc1ccc(O)cc1)C(=O)N[C@@H](CC(C)C)C(=O)N[C@@H](CC(=O)O)C(=O)N[C@@H](CCCCN)C(=O)N[C@@H](CCC(N)=O)C(=O)N[C@@H](C)C(=O)N[C@@H](C)C(=O)NC(C)(C)C(=O)N[C@@H](CCC(=O)O)C(=O)N[C@@H](Cc1ccccc1)C(=O)N[C@H](C(=O)N[C@@H](CC(N)=O)C(=O)N[C@@H](Cc1c[nH]c2ccccc12)C(=O)N[C@@H](CC(C)C)C(=O)N[C@@H](CC(C)C)C(=O)N[C@@H](C)C(=O)NCC(=O)NCC(=O)N1CCC[C@H]1C(=O)N[C@@H](CO)C(=O)N[C@@H](CO)C(=O)NCC(=O)N[C@@H](C)C(=O)N1CCC[C@H]1C(=O)N1CCC[C@H]1C(=O)N1CCC[C@H]1C(=O)N[C@@H](CO)C(=O)N[C@@H](CCCCN)C(N)=O)C(C)C [mt-263]
decrease in blood glucose levels ([1]; Example 30, 10 nmol/kg dose, Day 7 compared to Day 0): ~-80 mg/dL
EC50 [6]: 3.1 pM

CCCCCCCCCCCCCC(=O)NCCCC[C@H](NC(=O)[C@H](CO)NC(=O)[C@@H]1CCCN1C(=O)[C@@H]1CCCN1C(=O)[C@@H]1CCCN1C(=O)[C@H](C)NC(=O)CNC(=O)[C@H](CO)NC(=O)[C@H](CO)NC(=O)[C@@H]1CCCN1C(=O)CNC(=O)CNC(=O)[C@H](C)NC(=O)[C@H](CC(C)C)NC(=O)[C@H](CC(C)C)NC(=O)[C@H](Cc1c[nH]c2ccccc12)NC(=O)[C@H](CC(N)=O)NC(=O)[C@@H](NC(=O)[C@H](Cc1ccccc1)NC(=O)[C@H](CCC(=O)O)NC(=O)C(C)(C)NC(=O)[C@H](C)NC(=O)[C@H](C)NC(=O)[C@H](CCC(N)=O)NC(=O)[C@H](CCCCN)NC(=O)[C@H](CC(=O)O)NC(=O)[C@H](CC(C)C)NC(=O)[C@H](Cc1ccc(O)cc1)NC(=O)[C@@H](NC(=O)[C@H](CO)NC(=O)[C@H](Cc1ccc(O)cc1)NC(=O)[C@H](CC(=O)O)NC(=O)[C@H](CO)NC(=O)[C@@H](NC(=O)[C@H](Cc1ccccc1)NC(=O)[C@@H](NC(=O)CNC(=O)[C@H](CCC(=O)O)NC(=O)C(C)(C)NC(=O)[C@@H](N)Cc1ccc(O)cc1)[C@@H](C)O)[C@@H](C)O)[C@@H](C)CC)C(C)C)C(N)=O [mt-260]
receptor activity profile (glucagon / GLP-1 / GIP agonism) [4]: exhibited activity at the GIP, GLP-1, and glucagon receptors
Glucagon Receptor relative activity [5]: 6.64%
decrease in blood glucose levels [1, 12]: ~50%
GIP Receptor relative activity [6]: 583.33%
EC50 ([7]; GLP-1 Receptor EC50, cAMP luciferase reporter assay as in Example 16): 6.8 pM
GLP-1 Receptor relative activity [7]: 257.35%
